The values that follow come from patent publication US20050014700A1, “Cbi analogues of cc-1065 and the duocarmycins” (priority 2001, published 2005).

In general, IC50 refers to the point on the concentration scale where inhibition reaches its midpoint. Higher therefore signals weaker potency in that assay.

Series [1] has as its system w794 duplex DNA (SV40 nucleosomal DNA insert in M13mp10). The experiment in a line: DNA alkylation efficiency and selectivity, thermally-induced strand cleavage of 5′ end-labeled duplex DNA (PAGE). The series is classed as biochemical. As to conditions: for concentration at which DNA alkylation is detectable: 25° C., 24 hours. The source says: The DNA alkylation properties of the compounds including those of CBI-X9-Y9 (24), CBI-X11-Y9 (25) and CBI-X10-Y10 (26) (FIG. 7) were examined within a 150 base-pair segment of duplex DNA and compared with (+)-duocarmycin SA (2), (+)-CBI-CDPI2 (27) and (+)-CBI-indole2 (28). One clone of phage M13mp10 was selected for the study that contained the SV40 nucleosomal DNA insert w794 (nucleotide no. 5238-138) (Ambrose, C., et al., J. Mol. Biol. 1989, 210, 255). The alkylation site identification and the assessment of the relative selectivity among the available sites was obtained by thermally-induced strand cleavage of the singly 5′ end-labeled duplex DNA after exposure to the agents. After treatment of the end-labeled duplex DNA with a range of agent concentrations, the unbound agent was removed by EtOH precipitation of the DNA. Redissolution of the DNA in aqueous buffer, thermolysis (100° C., 30 min) to induce strand cleavage at the sites of DNA alkylation, denaturing high resolution polyacrylamide gel electrophoresis (PAGE) adjacent to Sanger dideoxynucleotide sequencing standards, and autoradiography led to identification of the DNA cleavage and alkylation sites (Boger, D. L., et al., Tetrahedron 1991, 47, 2661).
The preparation of singly ^32P 5′ end-labeled double-stranded DNA, the agent binding studies, gel electrophoresis, and autoradiography were conducted according to procedures described in full detail elsewhere.^28 Eppendorf tubes containing the 5′ end-labeled DNA (9 μL) in TE buffer (10 mM Tris, 1 mM EDTA, pH 7.5) were treated with the agent in DMSO (1 μL at the specified concentration). The solution was mixed by vortexing and brief centrifugation and subsequently incubated at 25° C. for 24 hours. The covalently modified DNA was separated from the unbound agent by EtOH precipitation and resuspended in TE buffer (10 μL). The solution of DNA in an Eppendorf tube sealed with Parafilm was warmed at 100° C. for 30 min to introduce cleavage at the alkylation sites, allowed to cool to 25° C., and centrifuged. Formamide dye (0.03% xylene cyanol FF, 0.03% bromophenol blue, 8.7% Na2EDTA 250 mM) was added (5 μL) to the supernatant. Prior to electrophoresis, the sample was denatured by warming at 100° C. for 5 min, placed in an ice bath, and centrifuged, and the supernatant (3 μL) was loaded directly onto the gel. Sanger dideoxynucleotide sequencing reactions were run as standards adjacent to the reaction samples. Polyacrylamide gel electrophoresis (PAGE) was run on an 8% sequencing gel under denaturing conditions (8 M urea) in TBE buffer (100 mM Tris, 100 mM boric acid, 0.2 mM Na2EDTA) followed by autoradiography.

The subject of series [2] is L1210. In words: cellular functional assay for L1210 cytotoxic activity. The series is classed as cell-based. The protocol:
For comparison, the L1210 IC50 for (+)-N-Boc-CBI, which lacks an attached DNA binding domain, is 80 nM (80,000 pM).

Series [3] concerns w794 duplex DNA (SV40 nucleosomal DNA insert in M13mp10). The settings on record: cited from earlier work; for DNA alkylation efficiency compared to parent (+)-CBI-CDPI (21) / DNA alkylation selectivity compared to parent (+)-CBI-CDPI (21): previous study.
Series [4] relates to L1210. As to conditions: previous study; additional heteroatom in carboxylate bearing aromatic ring; cited from earlier work.

Where two headings read alike, the source gives them in different places.

With `Cn1cc(NC(=O)OC(C)(C)C)nc1C(=O)Nc1cn(C)c(C(=O)N2CC(CCl)c3c2cc(O)c2ccccc32)n1` (centres unmarked) [compound 24], the “concentration at which DNA alkylation is detectable” value in series [1] (w794 DNA) is > 10^−3 M.
“1-(Chloromethyl)-5-hydroxy-3-{[3-[4-(tert-Butoxycarbonylamino)-1-methylpyrrol-2-yl)-carbonyl]-1,2-dihydro(3H-pyrrolo[3,2-e]indol)-7-yl)carbonyl}-1,2-dihydrobenzo[e]indole [X11-Y10]” had an IC50 in the series on L1210 [2] of 5 pM. This lies in the picomolar range.
Regarding `NC(=O)N1CCc2c1ccc1[nH]c(C(=O)N3CCc4c3ccc3[nH]c(C(=O)N5C[C@H]6C[C@@]67C5=CC(=O)c5ccccc57)cc43)cc21` [compound 27, (+)-CBI-CDPI2], the “alkylation of the minor 5′-ACTAA-3′ site” value in series [1] (w794 DNA) is listed as “neither 27 or 28 alkylate the minor 5′-ACTAA-3′ site to a significant extent”.
“1-(Chloromethyl)-5-hydroxy-3-{[4-[4-(tert-Butoxycarbonylaminothiophen-2-yl)carbonyl]aminothiophen-2-yl]carbonyl}-1,2-dihydrobenzo[e]indole [X8-Y8]” showed an IC50 in the series with L1210 [2] of 290 pM.
Same read-out and setting: in the case of `CC(C)(C)OC(=O)Nc1ccc2[nH]c(C(=O)N3CCc4c3ccc3[nH]c(C(=O)N5CC(CCl)c6c5cc(O)c5ccccc65)cc43)cc2c1` (centres unmarked) [X11-Y14, 1-(Chloromethyl)-5-hydroxy-3-{[3-[5-(tert-Butoxycarbonylaminoindole-2-yl)carbonyl]-1,2-dihydro(3H-pyrrolo[3,2-e]indol)-7-yl)carbonyl}-1,2-dihydrobenzo [e]indole] it was 7 pM.
In the case of (+)-CBI-CDPI [compound 21], in series [3] (w794 DNA, prior study), the “alkylation of the minor 5′-ACTAA-3′ site” value is given as “does”.
For the compound `CC(C)(C)OC(=O)N1CC2CC23C1=CC(=O)c1ccccc13` (single isomer, unassigned; (+)) [(+)-N-Boc-CBI], the IC50 in the series with L1210 [2] was determined as 80000 pM.
Take “1-(Chloromethyl)-5-hydroxy-3-{[4-[4-(tert-Butoxycarbonylamino)-1-methylpyrrol-2-yl)carbonyl]amino-1-methylpyrrol-2-yl]carbonyl}-1,2-dihydrobenzo[e]indole [X10-Y10]”: the IC50 in the series on L1210 [2] is 440 pM. Besides, the “DNA alkylation effectiveness relative to N-Boc-CBI” value in series [1] (comparable reaction conditions) is 10-100 fold. In series [1] (w794 DNA), the “lower DNA alkylation efficiency compared to 25” value is recorded as 100-1000 fold and the “concentration at which DNA alkylation is detectable” value is listed as 10^−3 M.
Regarding (+)-CBI-indole2 [compound 28], the “alkylation of the minor 5′-ACTAA-3′ site” value in series [1] (w794 DNA) was “neither 27 or 28 alkylate the minor 5′-ACTAA-3′ site to a significant extent”.
Compound `CC(C)(C)OC(=O)N1CCc2c1ccc1[nH]c(C(=O)N3CCc4c3ccc3[nH]c(C(=O)N5CC(CCl)c6c5cc(O)c5ccccc65)cc43)cc21` (centres unmarked) [X11-Y11] had an IC50 in the series with L1210 [2] of 5 pM.
For (+)-CBI-CDPBI, in series [3], the “DNA alkylation efficiency compared to parent (+)-CBI-CDPI (21)” value was “analogous decrease in the DNA alkylation efficiency” and the “DNA alkylation selectivity compared to parent (+)-CBI-CDPI (21)” value was “no alteration in the alkylation selectivity”. The “decrease in cytotoxic activity relative to (+)-CBI-CDPI (21)” value in the series on L1210 [4] is listed as 40 fold.
In the series with L1210 [2], “1-(Chloromethyl)-5-hydroxy-3-{[3-[2-(tert-Butoxycarbonylamino-1,3-thiazol-4-yl) carbonyl]-1,2-dihydro(3H-pyrrolo[3,2-e]indol)-7-yl)carbonyl}-1,2-dihydrobenzo[e]indole [X11-Y7]” displayed a half-maximal inhibitory concentration (IC50) of 5 pM.
As to (+)-CBI-CDPBO, in series [3], the “DNA alkylation efficiency compared to parent (+)-CBI-CDPI (21)” value was “analogous decrease in the DNA alkylation efficiency” and the “DNA alkylation selectivity compared to parent (+)-CBI-CDPI (21)” value is reported as “no alteration in the alkylation selectivity”. Also, the “decrease in cytotoxic activity relative to (+)-CBI-CDPI (21)” value with L1210 [4] is reported as 40 fold.
